{
  "source": "patent US9119847B2",
  "about": "“Neferine and the use thereof in treating huntington disease” (Macau University of Science and Technology, priority 2013, dated 2015)",
  "key": {"[1]": {"conditions": "ref. [14]; cited from earlier work"}, "PC-12 cells [2]": {"test_system": "PC-12 cells", "test": "Cytotoxicity, crystal violet staining cell viability assay", "format": "cell-based, rat", "conditions": "7.5 μM neferine, 24 hours, PC-12 cells (FIGS. 6A, 6B)", "protocol": "The test compound of neferine was dissolved in dimethyl sulfoxide (DMSO) at a final concentration of 100 mmol/L and stored at −20° C. For cell viability assay measured by crystal violet staining, PC-12 cells were incubated in 35 mm disc followed by the addition of 7.5 μM neferine for 24 hours. The cells were then incubated with crystal violet for 10 minutes followed by a ddH2O wash. The stained cell images were captured by CCD digital camera Spot RT3™ under the Nikon ECLIPSE 80i microscope with 4× magnification. Cell viability was quantified by dissolving stained cells in 10% acetic acid (200 μL/well). The colorimetric reading of the solute mixture was then determined by spectrophotometer at OD 560 nm. The percentage of cell viability was calculated using the following formula: Cell viability (%)=Cells number treated/Cells number DMSO control×100. Data were obtained from three independent experiments."}, "[3]": {"test_system": "AMPK-mTOR signaling pathway", "test": "Detection of mTOR signaling marker proteins (p-AMPK, p-p70S6K) and LC3-II by western blot", "format": "cell-based, rat", "protocol": "PC-12 cells were treated with neferine (7.5 μM) from 0-24 h. Cells treated with 0.3 μM of rapamycin (Rap) for 24 h were used as the positive control. Cell lysate was then harvested and analyzed for p-AMPK, AMPK, p-p70S6K, p70S6K and α-tubulin respectively. PC-12 cells were treated with 7.5 μM of neferine with or without AMPK inhibitor (compound C, CC, 5 μM) for 24 h for the detection of LC3-II marker. Cell lysates were analyzed for LC3 I/II and β-actin, respectively. After that, the membrane was further incubated with HRP-conjugated secondary antibodies for 60 minutes. Finally, protein bands were visualized by using the ECL Western Blotting Detection Reagents (Invitrogen)."}, "[4]": {"test_system": "Atg7 wild-type mouse embryonic fibroblasts (Atg7+/+)", "test": "GFP-LC3 puncta in Atg7 wild-type MEFs", "format": "cell-based", "conditions": "7.5 μM neferine, 24 h, Atg7+/+ MEFs (FIGS. 4A, 4B)", "protocol": "(§1) GFP-LC3 puncta formation was quantified as previously described. In brief, both Atg7 wild-type and deficient mouse embryonic fibroblasts (MEFs) grown on coverslips in a 6-well plate were treated with indicated concentrations of neferine. The cells were then fixed in 4% paraformaldehyde for 20 minutes at room temperature and then rinsed with PBS. Slides were mounted with FluorSave™ mounting media (Calbiochem, San Diego, Calif.) and examined by fluorescence microscopy. The number of GFP-positive cells with GFP-LC3 puncta formation was examined under the Nikon ECLIPSE 80i microscope. Representative images were captured with CCD digital camera Spot RT3™ (Diagnostic Instruments, Inc., Melville, N.Y.). To quantify for autophagy, the percentage of cells with punctate GFP-LC3 fluorescence was calculated by counting the number of the cells with punctate GFP-LC3 fluorescence in GFP-positive cells. A minimum of 150 cells from 3 randomly selected fields was scored."}, "[5]": {"test_system": "mutant huntingtin EGFP-HDQ 55/74", "test": "Removal of mutant huntingtin EGFP-HDQ 55/74, immunoblotting against EGFP", "format": "cell-based, rat", "conditions": "7.5 μM neferine, 24 hours, transfected PC-12 cells (FIG. 3)", "protocol": "PC-12 cells were transfected transiently with EGFP-HDQ 55/74 plasmids for 24 hours using Lipofectamine Plus LTX reagent (Invitrogen) according to the manufacturer's protocol. The transfected cells were then treated with 7.5 μM neferine for 24 hours. The removal of mutant huntingtin, EGFP-HDQ 55 and 74, was then quantitated by immunoblotting with antibody against EGFP."}, "[6]": {"test_system": "Atg7-knockout mouse embryonic fibroblasts (Atg7−/−)", "test": "GFP-LC3 puncta in Atg7 deficient MEFs", "format": "cell-based", "conditions": "7.5 μM neferine, 24 h, Atg7−/− MEFs (FIGS. 4A, 4B)", "protocol": "as §1"}, "[7]": {"test_system": "PC-12 cells expressing GFP-LC3", "test": "Quantification of neferine-mediated autophagy (GFP-LC3 puncta) in the presence of compound C", "format": "cell-based, rat", "conditions": "7.5 μM neferine plus compound C 5 μM, PC-12 cells (FIGS. 2B, 2C)", "protocol": "GFP-LC3 puncta formation was quantified as previously described. In brief, PC-12 cells expressing GFP-LC3 were treated with 7.5 μM neferine in the presence of compound C (CC, 5 μM) for 12 h. The cells were then fixed in 4% paraformaldehyde for 20 minutes at room temperature and then rinsed with PBS. Slides were mounted with FluorSave™ mounting media (Calbiochem) and examined by fluorescence microscopy. To quantify for autophagy, the percentage of cells with punctate GFP-LC3 fluorescence was calculated by counting the number of the cells with punctate GFP-LC3 fluorescence in GFP-positive cells. A minimum of 150 cells from 3 randomly selected fields was scored."}, "LC3-II": {"test_system": "LC3-II", "test": "Detection of autophagic marker protein LC3 conversion (western blot)", "format": "cell-based, rat", "conditions": "PC-12 cells, with lysosomal protease inhibitors E64d and pepstatin A (FIG. 1D)", "protocol": "After neferine treatments with or without autophagy inhibitor (3-Methyladenine, 3-MA) and protease inhibitor (10 μg/mL E64D and pepstain A), cells were harvested and lysed in RIPA buffer (Cell Signaling Technologies Inc., Beverly, Mass.). The cell lysates were then resolved by SDS-PAGE. After electrophoresis, the proteins from SDS-PAGE were transferred to nitrocellulose membrane which was then blocked with 5% non-fat dried milk for 60 minutes. The membrane was then incubated with LC3 primary antibodies (1:1000) in TBST overnight at 4° C. After that, the membrane was further incubated with HRP-conjugated secondary antibodies for 60 minutes. Finally, protein bands were visualized by using the ECL Western Blotting Detection Reagents (Invitrogen, Paisley, Scotland, UK).\nTo further confirm its autophagic activity, PC-12 cells treated with neferine were analyzed by western blot for LC3-I to LC3-II conversion. To differentiate that the autophagy effect was due to LC3-II formation, rather than failure of fusion between autophagosome and lysosomes, level of LC3-II was assayed with the presence of two lysosomal inhibitors (E64d and pepstatin A) that […]."}, "[8]": {"test_system": "EGFP-HDQ74 transfected Atg7 wild-type MEFs", "test": "Mutant huntingtin aggregates in EGFP-HDQ74 transfected Atg7 wild-type MEFs", "format": "cell-based, mouse", "conditions": "7.5 μM neferine, 24 h, Atg7+/+ cells (FIGS. 5A, 5B)", "protocol": "(§2) In brief, both EGFP-HDQ74 transfected Atg7 wild-type and deficient mouse embryonic fibroblasts (MEFs) grown on coverslips in a 6-well plate were treated with indicated concentrations of neferine. The cells were then fixed in 4% paraformaldehyde for 20 minutes at room temperature and then rinsed with PBS. Slides were mounted with FluorSave™ mounting media (Calbiochem, San Diego, Calif.) and examined by fluorescence microscopy. The number of cells with GFP-aggregates formation was examined under the Nikon ECLIPSE 80i microscope. Representative images were captured with CCD digital camera Spot RT3™ (Diagnostic Instruments, Inc., Melville, N.Y.). To quantify for the clearance of mutant huntingtin, the percentage of cells with GFP-aggregates was calculated by counting the number of the cells with […] in GFP-positive cells. A minimum of 150 cells from 3 randomly selected fields was scored."}, "PC-12 cells [9]": {"test_system": "PC-12 cells", "test": "Quantification of autophagy GFP-LC3 puncta in PC-12 cells", "format": "cell-based, rat", "protocol": "as §1, with “PC-12 cells” for “both Atg7 wild-type and deficient mouse embryonic fibroblasts (MEFs)”, “were” for “were treated with indicated concentrations of neferine. The cells were then”\nThe data of PC-12 cells with GFP-LC3 expression without any treatment of neferine was used as control."}, "[10]": {"test_system": "EGFP-HDQ74 transfected Atg7 deficient MEFs", "test": "Mutant huntingtin aggregates in EGFP-HDQ74 transfected Atg7 deficient MEFs", "format": "cell-based, mouse", "conditions": "7.5 μM neferine, 24 h, Atg7−/− cells (FIGS. 5A, 5B)", "protocol": "as §2"}, "[11]": {"test_system": "PC-12 cells transfected with mutant huntingtin EGFP-HDQ 55 and 74", "test": "MTT cytotoxicity assay in PC-12 cells expressing mutant huntingtin", "format": "cell-based, rat", "conditions": "7.5 μM neferine, 24 h, PC-12 cells with EGFP-HDQ 55 or EGFP-HDQ 74 (FIG. 7)", "protocol": "Cell cytotoxicity assay: Cytotoxicity was assessed using the 3-(4,5-dimethylthiazol-2-yl)-2,5-diphenyltetrazolium bromide assay. PC-12 cells were transfected with or without mutant huntingtin EGFP-HDQ 55 and 74 for 16 h, the PC-12 cells (4000 cells) were then seeded on 96-well plates per well and then exposed to 7.5 μM of neferine for 24 h […]. Subsequently, 10 μL of MTT reagents was added to each well and incubated at 37° C. for 4 hours, followed by the addition of 100 μL solubilization buffer (10% SDS in 0.01 mol/L HCl) and overnight incubation. Absorbance at 585 nm was determined from each well on the following day. The percentage of cell viability was calculated using the following formula: Cell viability (%)=Cells number treated/Cells number DMSO control×100. Data was obtained from three independent experiments."}, "mutant huntingtin": {"test_system": "mutant huntingtin", "conditions": "mouse model of Huntington's disease, ref. [10]; cited from earlier work"}, "[12]": {"conditions": "7.5 μM neferine, 0-24 h, PC-12 cells (FIG. 2A)"}},
  "data": [
    {"smiles": "O=c1c(O)c(-c2ccc(O)c(O)c2)oc2cc(O)ccc12", "note": "[fisetin]", "values": [
      {"measurement": "bioavailability", "setting": "[1]", "result": "poor bioavailability"},
      {"measurement": "effective concentration", "setting": "[1]", "result": "high effective concentration"},
      {"measurement": "lipophilicity", "setting": "[1]", "result": "low lipophilicity"}
    ]},
    {"smiles": "COc1ccc(C[C@@H]2c3cc(Oc4cc(C[C@@H]5c6cc(OC)c(OC)cc6CCN5C)ccc4O)c(OC)cc3CCN2C)cc1", "note": "[neferine]", "values": [
      {"measurement": "cytotoxicity / morphological damage (crystal violet assay)", "setting": "PC-12 cells [2]", "result": "no significant morphological damage"},
      {"measurement": "LC3-II level in presence of AMPK inhibitor compound C", "setting": "[3]; 7.5 μM neferine plus compound C 5 μM, 24 h, PC-12 cells, western blot (FIG. 2D)", "result": "decrease in LC3-II level"},
      {"measurement": "p70S6K phosphorylation", "setting": "[3]; [12]", "result": "concomitant reduction in its downstream p70S6K phosphorylation"},
      {"measurement": "phosphorylation of AMPK", "setting": "[3]; [12]", "result": "activate the phosphorylation of AMPK in a time dependent manner"},
      {"measurement": "GFP-LC3 puncta formation", "setting": "[4]", "result": "induce GFP-LC3 puncta formation"},
      {"measurement": "clearance of overexpressed EGFP-tagged mutant huntingtin EGFP-HDQ 55", "setting": "[5]", "result": "enhanced the clearance"},
      {"measurement": "clearance of overexpressed EGFP-tagged mutant huntingtin EGFP-HDQ 74", "setting": "[5]", "result": "enhanced the clearance"},
      {"measurement": "GFP-LC3 puncta formation", "setting": "[6]", "result": "not in Atg7-knockout mouse embryonic fibroblasts"},
      {"measurement": "neferine-induced GFP-LC3 puncta formation in presence of AMPK inhibitor compound C", "setting": "[7]", "result": "significant reduction in neferine-induced GFP-LC3 puncta formation"},
      {"measurement": "rate of LC3-II formation (LC3-I to LC3-II conversion)", "setting": "LC3-II", "result": "increases the rate of LC3-II formation"},
      {"measurement": "clearance of mutant huntingtin EGFP-HDQ74 inclusions", "setting": "[8]", "result": "enhance the clearance of mutant huntingtin EGFP-HDQ74 inclusions"},
      {"measurement": "percentage of cells with GFP-LC3 puncta formation", "setting": "PC-12 cells [9]; 7.5 μM neferine, 24 h, PC-12 cells with GFP-LC3 expression, vs untreated control (FIGS. 1B, 1C)", "result": "increased the percentage of cells with GFP-LC3 puncta formation significantly"},
      {"measurement": "GFP-LC3 puncta formation in presence of autophagy inhibitor 3-MA", "setting": "PC-12 cells [9]; neferine plus 3-Methyladenine (3-MA), PC-12 cells", "result": "significant reduction in GFP-LC3 puncta formation"},
      {"measurement": "clearance of mutant huntingtin EGFP-HDQ74 inclusions", "setting": "[10]", "result": "not in autophagy-deficient cells"},
      {"measurement": "cell death induced by mutant huntingtin (cell viability, MTT)", "setting": "[11]", "result": "attenuated cell death induced by mutant huntingtin"}
    ]},
    {"smiles": "C1COC(NC(C2CC2)C2CC2)=N1", "note": "[rilmenidine]", "values": [
      {"measurement": "toxicity of mutant huntingtin", "setting": "mutant huntingtin", "result": "attenuate the toxicity of mutant huntingtin"}
    ]}
  ]
}
